Data from US10815222B2, “Compounds for use in the treatment of kinetoplastid infection” (C.N.C.C.S. S.c.a.r.l. COLLEZIONE NAZIONALE DEI COMPOSTI …, priority 2016, dated 2020).

System: Bloodstream form of Trypanosoma brucei, strain Lister 427
Assay: Trypanosoma brucei growth inhibition assay (CellTiter-Glo, 24 h)
Format: cell-based
Conditions: Trypanosoma brucei; T. Brucei Growth Inibition Assay, class symbols; read-out: T. Brucei GI EC50
Outline: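 Growth read-out was CellTiter-Glo luminescence after 24 h at 37 °C incubation of 1500 bloodstream-form Lister 427 trypanosomes per well with compound, in supplemented IMDM containing 10% FBS and at most 0.25% DMSO.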

Row | Structure (SMILES) | EC50 [µM]
1 | COc1nc2ccccc2cc1-c1cnc(C2CNCCN2C(=O)Cc2ccccc2)[nH]1 (stereo not shown) | 1.01 to 5
2 | COc1nc2ccccc2cc1-c1cnc(C2CN(S(C)(=O)=O)CCN2C(=O)Cc2ccccc2)[nH]1 (stereo not shown) | 1.01 to 5
3 | O=C(Cc1c[nH]c2ncccc12)N1CCCCC1c1ncc(-c2ccc3ccccc3c2)[nH]1 (stereo not shown) | 1.01 to 5
4 | O=C(Cc1c[nH]c2ncccc12)N1CCOCC1c1ncc(-c2ccc3ccccc3c2)[nH]1 (stereo not shown) | 1.01 to 5
5 | COc1nc2ccccc2cc1-c1cnc(C2CN(CC(F)F)CCN2C(=O)Cc2ccccc2)[nH]1 (stereo not shown) | 1.01 to 5
6 | CCn1cc(CN2CCC(c3ncc(-c4cc5ccccc5nc4OC)[nH]3)N(C(=O)Cn3c(C(F)(F)F)nc4ccc(OC)cc43)CC2)cn1 (stereo not shown) | 0.51 to 1
7 | COc1ccc2nc(C(F)(F)F)n(CC(=O)N3CCN(Cc4cn[nH]c4)CCC3c3ncc(-c4cc5ccccc5nc4OC)[nH]3)c2c1 (stereo not shown) | 0.1 to 0.5
8 | COc1ccc2nc(C(F)(F)F)n(CC(=O)N3CCN(Cc4cnn(C)c4C)CCC3c3ncc(-c4cc5ccccc5nc4OC)[nH]3)c2c1 (stereo not shown) | 0.1 to 0.5
9 | COc1nc2ccccc2cc1-c1cnc(C2CN(C(C)=O)CCN2C(=O)Cc2ccccc2)[nH]1 (stereo not shown) | 1.01 to 5
10 | COc1ccc2nc(C(F)(F)F)n(CC(=O)N3CCN(C4CCCC4)CCC3c3ncc(-c4cc5ccccc5nc4OC)[nH]3)c2c1 (stereo not shown) | 0.1 to 0.5
11 | COc1nc2ccccc2cc1-c1cnc(C2CN(C(C)C)CCN2C(=O)Cc2ccccc2)[nH]1 (stereo not shown) | 1.01 to 5
12 | COc1ccc2nc(C(F)(F)F)n(CC(=O)N3CCN(C(C)C)CCC3c3ncc(-c4cc5ccccc5nc4OC)[nH]3)c2c1 (stereo not shown) | 0.1 to 0.5
13 | CN1CCN(C(=O)Cc2ccccc2)C(c2ncc(-c3ccc4ccccc4c3)[nH]2)C1 (stereo not shown) | 1.01 to 5
14 | CN1CCN(C(=O)Cc2ccncc2)C(c2ncc(-c3ccc4ccccc4c3)[nH]2)C1 (stereo not shown) | 1.01 to 5
15 | CN1CCN(C(=O)Cc2cnc3ccccc3c2)C(c2ncc(-c3ccc4ccccc4c3)[nH]2)C1 (stereo not shown) | 1.01 to 5
16 | CN1CCN(C(=O)CCS(=O)(=O)c2ccccc2)C(c2ncc(-c3ccc4ccccc4c3)[nH]2)C1 (stereo not shown) | 1.01 to 5
17 | CN1CCN(C(=O)Cc2ccccc2)C(c2ncc(-c3ccc4ncccc4c3)[nH]2)C1 (stereo not shown) | 1.01 to 5
18 | COc1ccc2nc(C)n(CC(=O)N3CCN(CC4CCOC4)C[C@H]3c3ncc(-c4cc5ccccc5[nH]4)[nH]3)c2c1 (stereo partly shown) | 1.01 to 5
19 | COc1ccc2nc(C)n(CC(=O)N3CCC(O)C[C@H]3c3ncc(-c4cc5ccccc5nc4OC)[nH]3)c2c1 (stereo partly shown) | 0.51 to 1
20 | COc1ccc2nc(C(F)(F)F)n(CC(=O)N3CC[C@@H](N(C)C)C[C@H]3c3ncc(-c4cc5ccccc5nc4OC)[nH]3)c2c1 | 0.51 to 1
21 | CN1CCN(C(=O)Cc2ccccc2F)C(c2ncc(-c3ccc4ccccc4c3)[nH]2)C1 (stereo not shown) | 1.01 to 5

Row | Structure (SMILES) | EC50 [µM]
22 | CN1CCN(C(=O)Cn2cc3ccccc3n2)C(c2ncc(-c3ccc4ccccc4c3)[nH]2)C1 (stereo not shown) | 1.01 to 5
23 | COc1ccc(CC(=O)N2CCN(C)CC2c2ncc(-c3ccc4ccccc4c3)[nH]2)cc1 (stereo not shown) | 1.01 to 5
24 | COc1ccc2nc(C(F)(F)F)n(CC(=O)N3CCN(CCc4csc(C)n4)CCC3c3ncc(-c4cc5ccccc5nc4OC)[nH]3)c2c1 (stereo not shown) | 0.1 to 0.5
25 | COc1ccc2nc(C(F)(F)F)n(CC(=O)N3C[C@@H](NC4CCOC4)CC[C@H]3c3ncc(-c4cc5ccccc5nc4OC)[nH]3)c2c1 (stereo partly shown) | 0.51 to 1
26 | COc1ccc2nc(C(F)(F)F)n(CC(=O)N3CCN(Cc4noc(C)n4)CCC3c3ncc(-c4cc5ccccc5nc4OC)[nH]3)c2c1 (stereo not shown) | 0.1 to 0.5
27 | COc1ccc2nc(C(F)(F)F)n(CC(=O)N3CCN(Cc4cnn(C)c4)CCC3c3ncc(-c4cc5ccccc5nc4OC)[nH]3)c2c1 (stereo not shown) | 0.1 to 0.5
28 | COc1ccc2nc(C(F)(F)F)n(CC(=O)N3CCN(Cc4cnc(C)s4)CCC3c3ncc(-c4cc5ccccc5nc4OC)[nH]3)c2c1 (stereo not shown) | 0.1 to 0.5
29 | COc1ccc2nc(C(F)(F)F)n(CC(=O)N3CCN(Cc4cn(C)nn4)CCC3c3ncc(-c4cc5ccccc5nc4OC)[nH]3)c2c1 (stereo not shown) | 0.1 to 0.5
30 | COc1ccc2nc(C(F)(F)F)n(CC(=O)N3CC[C@@H](NCc4nccs4)C[C@H]3c3ncc(-c4cc5ccccc5nc4OC)[nH]3)c2c1 | 0.1 to 0.5
31 | COc1ccc2nc(C(F)(F)F)n(CC(=O)N3CC[C@@H](NC4CCOC4)C[C@H]3c3ncc(-c4cc5ccccc5nc4OC)[nH]3)c2c1 (stereo partly shown) | 0.1 to 0.5
32 | COc1ccc2nc(C)n(CC(=O)N3CC[C@H](N(C)Cc4cnccn4)C[C@H]3c3ncc(-c4cc5ccccc5nc4OC)[nH]3)c2c1 | 0.1 to 0.5
33 | COc1ccc2nc(C)n(CC(=O)N3CC[C@H](NCc4ccn(C)n4)C[C@H]3c3ncc(-c4cc5ccccc5nc4OC)[nH]3)c2c1 | 1.01 to 5
34 | COc1ccc2nc(C)n(CC(=O)N3CCN(CC4CCOC4)C[C@H]3c3ncc(-c4ccc5ccccc5n4)[nH]3)c2c1 (stereo partly shown) | 1.01 to 5
35 | COc1ccc2nc(C)n(CC(=O)N3CCN(CC4CCOC4)C[C@H]3c3ncc(-c4cnc5ccccc5c4)[nH]3)c2c1 (stereo partly shown) | 0.51 to 1
36 | COc1ccc2nc(C)n(CC(=O)N3CCN(C4CCOC4)C[C@H]3c3ncc(-c4cc5ccccc5nc4OC)[nH]3)c2c1 (stereo partly shown) | 0.1 to 0.5
37 | COc1ccc2nc(C)n(CC(=O)N3CCN(CC4CCOC4)C[C@H]3c3ncc(-c4ccc(-c5ccccc5)nc4OC)[nH]3)c2c1 (stereo partly shown) | 0.51 to 1
38 | COc1ccc2nc(C)n(CC(=O)N3CCN(CC4CCOC4)C[C@H]3c3ncc(-c4ccc5ncccc5c4)[nH]3)c2c1 (stereo partly shown) | 1.01 to 5
39 | COc1ccc2nc(C)n(CC(=O)N3CC[C@H](NCC4CCOC4)C[C@H]3c3ncc(-c4cc5ccccc5nc4OC)[nH]3)c2c1 (stereo partly shown) | 1.01 to 5
40 | CN1CCN(C(=O)Cc2noc3ccccc23)C(c2ncc(-c3ccc4ccccc4c3)[nH]2)C1 (stereo not shown) | 1.01 to 5
41 | COc1ccc2[nH]c(C)c(CC(=O)N3CCN(CCCC(=O)O)CC3c3ncc(-c4ccc5ccccc5c4)[nH]3)c2c1 (stereo not shown) | 1.01 to 5
42 | COc1ccccc1C(=O)N1CCN(C)CC1c1ncc(-c2ccc3ccccc3c2)[nH]1 (stereo not shown) | 1.01 to 5

Row | Structure (SMILES) | EC50 [µM]
43 | CN1CCN(C(=O)C2(c3ccccc3)CC2)C(c2ncc(-c3ccc4ccccc4c3)[nH]2)C1 (stereo not shown) | 1.01 to 5
44 | COc1nc2ccccc2cc1-c1cnc([C@@H]2CCN(Cc3ccn(C)n3)CCN2C(=O)[C@](OC)(c2ccccc2)C(F)(F)F)[nH]1 | 1.01 to 5
45 | CCC(=O)CCCN1CCN(C(=O)Cc2c[nH]c3ccccc23)[C@@H](c2ncc(-c3ccc4ccccc4c3)[nH]2)C1 | 1.01 to 5
46 | COc1ccc2nc(C)n(CC(=O)N3CCN(CCn4cccn4)C[C@H]3c3ncc(-c4cc5ccccc5nc4OC)[nH]3)c2c1 | 0.1 to 0.5
47 | COc1ccc2nc(C(F)(F)F)n(CC(=O)N3CCN(C4CCN(C)CC4)C[C@H]3c3ncc(-c4cc5ccccc5nc4OC)[nH]3)c2c1 | 0.1 to 0.5
48 | COc1ccc2nc(C)n(CC(=O)N3CCN(Cc4cn(C)nn4)C[C@H]3c3ncc(-c4cc5ccccc5nc4OC)[nH]3)c2c1 | 0.51 to 1
49 | COc1ccc2nc(C)n(CC(=O)N3CCN(C4CCOCC4)C[C@H]3c3ncc(-c4cc5ccccc5nc4OC)[nH]3)c2c1 | 0.1 to 0.5
50 | COc1nc2ccccc2cc1-c1cnc([C@@H]2CCN(Cc3ccn(C)n3)CCN2C(=O)[C@@](OC)(c2ccccc2)C(F)(F)F)[nH]1 | 1.01 to 5
51 | CCC(=O)CCCN1CCN(C(=O)Cc2c[nH]c3ccccc23)[C@H](c2ncc(-c3ccc4ccccc4c3)[nH]2)C1 | 0.1 to 0.5
52 | COC(=O)CCCN1CCN(C(=O)Cc2c(C)[nH]c3ccc(OC)cc23)C(c2ncc(-c3ccc4ccccc4c3)[nH]2)C1 (stereo not shown) | 0.1 to 0.5
53 | COc1ccc2nc(C)n(CC(=O)N3CCN(CC4CCOC4)C[C@H]3c3ncc(-c4cc5ccccc5n4C(=O)OC(C)(C)C)[nH]3)c2c1 (stereo partly shown) | 1.01 to 5
54 | COc1nc2ccccc2cc1-c1cnc([C@@H]2CN(C[C@@H]3CCOC3)CCN2C(=O)Cn2c(C(F)(F)F)nc3ccccc32)[nH]1 (single isomer, unassigned) | < 0.1
55 | COc1nc2ccccc2cc1-c1cnc([C@@H]2CN(C[C@H]3CCOC3)CCN2C(=O)Cn2c(C(F)(F)F)nc3ccccc32)[nH]1 (single isomer, unassigned) | < 0.1
56 | COc1nc2ccccc2cc1-c1cnc(C2CN(C)CCN2C(=O)Cc2ccccc2)[nH]1 (stereo not shown) [1-(2-(5-(2-methoxyquinolin-3-yl)-1H-imidazol-2-yl)-4-methylpiperazin-1-yl)-2-phenylethan-1-one] | 1.01 to 5
57 | COc1ccc2nc(C(F)(F)F)n(CC(=O)N3CCN(C4CCS(=O)(=O)CC4)CCC3c3ncc(-c4cc5ccccc5nc4OC)[nH]3)c2c1 (stereo not shown) [1-(4-(1,1-dioxidotetrahydro-2H-thiopyran-4-yl)-7-(5-(2-methoxyquinolin-3-yl)-1H-imidazol-2-yl)-1,4-diazepan-1-yl)-2-(6-methoxy-2-(trifluoromethyl)-1H-benzo[d]imidazol-1-yl)ethan-1-one] | < 0.1
58 | COc1ccc2nc(C(F)(F)F)n(CC(=O)N3CCN(CCn4cccn4)CCC3c3ncc(-c4cc5ccccc5nc4OC)[nH]3)c2c1 (stereo not shown) [1-(4-(2-(1H-pyrazol-1-yl)ethyl)-7-(5-(2-methoxyquinolin-3-yl)-1H-imidazol-2-yl)-1,4-diazepan-1-yl)-2-(6-methoxy-2-(trifluoromethyl)-1H-benzo[d]imidazol-1-yl)ethan-1-one] | < 0.1
59 | COc1ccc2nc(C(F)(F)F)n(CC(=O)N3CCN(Cc4ccon4)CCC3c3ncc(-c4cc5ccccc5nc4OC)[nH]3)c2c1 (stereo not shown) [1-(4-(isoxazol-3-ylmethyl)-7-(5-(2-methoxyquinolin-3-yl)-1H-imidazol-2-yl)-1,4-diazepan-1-yl)-2-(6-methoxy-2-(trifluoromethyl)-1H-benzo[d]imidazol-1-yl)ethan-1-one] | < 0.1
60 | COc1ccc2nc(C(F)(F)F)n(CC(=O)N3CCN(C4CCC4)CCC3c3ncc(-c4cc5ccccc5nc4OC)[nH]3)c2c1 (stereo not shown) [1-(4-cyclobutyl-7-(5-(2-methoxyquinolin-3-yl)-1H-imidazol-2-yl)-1,4-diazepan-1-yl)-2-(6-methoxy-2-(trifluoromethyl)-1H-benzo[d]imidazol-1-yl)ethan-1-one] | < 0.1
61 | COc1nc2ccccc2cc1-c1cnc(C2CCN(Cc3ccn(C)n3)CCN2C(=O)Cn2c(C(F)(F)F)nc3ccccc32)[nH]1 (stereo not shown) [1-(7-(5-(2-methoxyquinolin-3-yl)-1H-imidazol-2-yl)-4-((1-methyl-1H-pyrazol-3-yl)methyl)-1,4-diazepan-1-yl)-2-(2-(trifluoromethyl)-1H-benzo[d]imidazol-1-yl)ethan-1-one] | < 0.1
